# Measured values published in patent US6348614B1 (priority 1996, dated 2002).
# Like-named read-outs stand apart in the source and are kept apart here.
# Tests used:
# Venturia inaequalis = conditions: 0.03 M; cited from earlier work
# Phytophthora infestans [1] = type: in vivo; conditions: Tomato, 500 ppm, 7 days after inoculation
# [2] = tested on: Erysiphe graminis tritici; test: Powdery mildew in wheat, additional examples (Table 6); type: in vivo; conditions: 500 ppm, 7 days after inoculation
# Method: Wheat plants (cv.Shafir) were raised from seed in the greenhouse, 30 plants per 0.2 liter pot. When the first leaf was fully developed plants were sprayed with the test solutions and placed in a 20° C. growth cabinet. Two days after spraying plants were dusted with conidia of E. graminis tritict so that about 100 spores were settled on 1 cm^2 of leaf area (both surfaces). […] Control efficacy was calculated relative to number of colonies developed on the control-inoculated untreated plants.
# [3] = tested on: Pseudoperonospora cubensis; test: Downy mildew in cucumber (Table 8); conditions: 500 ppm, 7 days after inoculation
# Method: Cucumber plants (cv,Dlila) and melon plants (cv.Ein Dor) were raised from seeds in 0.2 liter pots in the greenhouse. At 3 weeks after sowing when had 3 true leaves they were inoculated with sporangial suspension (1000 sporangia/ml) of P.cubensis (resistant to metalaxyl) and placed in 100% relative humidity in the dark for 20 hr. They were then place in a 20° C. growth cabinet for 7 days and assessed for disease development. Percentage leaf area covered with disease symptoms was evaluated and control efficacy was calculated relative to control inoculated plants.
# Phytophthora infestans [4] = type: in vivo
# Phytophthora infestans [5] = type: in vivo; remark: listed apart in the source
# Erysiphe graminis hordei = test: Powdery mildew in barley (Table 5)
# From the text: (§1) For the following experiments we have used 10-days old potted wheat plants (Triticum asetivum cultivar Atir) and barley plants (Hhordeum vulgaris cultivar Amidon).
# (§2) Plants were sprayed with the test compounds and two days lated were inoculated with the powdery mildew fungal pathogens. Wheat was inoculated with Erysiphe granims tritici. Barley was inoculated with the powdery Erysiphe granims hordei.
# (§3) Inoculation was done by shaking infected donor plants harboring abundant conidia over the treated plants. Untreated plants were also inoculated as controls. Inoculated plants were placed in a growth chamber at 20-22C with 1 rhr photoperioed and 50-60% RH. At 9-10 days after inoculation disease intesity was visually assessed by estimating the percentage leaf area occupied by fungal colonies.
# (§4) Control efficacy of the disease achieved by the sprayed test compound was calculated relative to the amount of disease seen in the control.
# cladosporium cucumerinum = conditions: cited from earlier work
# [6] = tested on: Erysiphe graminis tritici; test: Powdery mildew in wheat (Table 5)
# From the text: as §1, §2, §3, §4
# Phytophthora infestans [7] = conditions: applied to leaves of tomato; cited from earlier work
# [8] = Barley 17.9.96, dose 500 (unit not given)
# [9] = Barley 17.9.96, dose 2000 (unit not given)
# [10] = Wheat 7.8.96, dose 500 (unit not given)
# [11] = Wheat 7.8.96, dose 2000 (unit not given)
compound,measurement,setting,value
CCC(N)C(=O)O (racemic) [DL-α-aminobutyric acid],reduction of scab in apple,Venturia inaequalis,reduce scab
"CC(CC(=O)OC1CCCCC1)NC(=O)c1ccccc1 (stereo not drawn) [compound 38, D,L N-benzoyl-3-aminobutyric acid cyclohexyl ester]",Control efficacy (%) 7d,Phytophthora infestans [1],78%
same,Control efficacy (%) 7d,[2],100%
same,Control efficacy (%) 7d,[3],80%
"CC(CC(=O)OCCCl)NC(=O)c1ccc(Cl)cc1 (racemic) [Example 6, D,L-N-4-chlorobenzoyl-3-aminobutyric acid 2-chloro-ethyl ester]",Control Efficacy %,"Phytophthora infestans [4]; Potato, 14.8.96, 2000 ppm",88%
same,Control Efficacy %,"Phytophthora infestans [4]; Potato, 17.7.096, 500 ppm",75%
same,Control Efficacy %,"Phytophthora infestans [4]; Potato, 17.7.096, 2000 ppm",50%
same,Control Efficacy %,"Phytophthora infestans [5]; Tomato, 12.7.96, 500 ppm",76%
same,Control Efficacy %,"Phytophthora infestans [5]; Tomato, 12.7.96, 2000 ppm",79%
same,Control Efficacy %,"Phytophthora infestans [5]; Tomato, 14.8/96, 2000 ppm",67%
same,Control Efficacy %,Erysiphe graminis hordei; [8],62%
same,Control Efficacy %,Erysiphe graminis hordei; [9],75%
"Cc1ccc(C(=O)NC(C)CC(=O)OC2CCCCC2)cc1 (stereo not drawn) [compound 37, D,L N-4-methylbenzoyl-3-aminobutyric acid cyclohexyl ester]",Control efficacy (%) 7d,Phytophthora infestans [1],78%
same,Control efficacy (%) 7d,[3],75%
CC(C)CC(N)C(=O)O (stereo not drawn) [DL leucine],reduction of scab in apple,Venturia inaequalis,reduce scab
NC(CO)C(=O)O (racemic) [DL-serine],behaviour as chemotherapeutant against the fungus on cucumber,cladosporium cucumerinum,behaved as chemothrerpeutants
"Cc1ccc(C(=O)NC(C)CC(=O)OCCC(Cl)(Cl)Cl)cc1 (stereo not drawn) [compound 36, D,L N-4-methylbenzoyl-3-aminobutyric acid 2-(trichloromethyl)ethyl ester]",Control efficacy (%) 7d,Phytophthora infestans [1],81%
same,Control efficacy (%) 7d,[3],82%
C[C@@H](O)[C@H](N)C(=O)O (racemic) [DL-threonine],behaviour as chemotherapeutant against the fungus on cucumber,cladosporium cucumerinum,behaved as chemothrerpeutants
C[C@@H](N)C(=O)O [D-alaninie],reduction of scab in apple,Venturia inaequalis,reduce scab
N-β-methyl benzoyl-3 aminobutyric acid-sec. butyl ester [Example 4],Control Efficacy %,[6]; [10],96%
same,Control Efficacy %,[6]; [11],96%
same,Control Efficacy %,"Phytophthora infestans [4]; Potato, 14.8.96, 2000 ppm",77%
same,Control Efficacy %,"Phytophthora infestans [4]; Potato, 17.7.096, 500 ppm",56%
same,Control Efficacy %,"Phytophthora infestans [4]; Potato, 17.7.096, 2000 ppm",75%
same,Control Efficacy %,"Phytophthora infestans [4]; Potato, 26.7.96, 500 ppm",23%
same,Control Efficacy %,"Phytophthora infestans [4]; Potato, 26.7.96, 2000 ppm",42%
same,Control Efficacy %,"Phytophthora infestans [5]; Tomato, 12.7.96, 2000 ppm",85%
same,Control Efficacy %,"Phytophthora infestans [5]; Tomato, 14.8/96, 2000 ppm",90%
same,Control Efficacy %,Erysiphe graminis hordei; [8],87%
same,Control Efficacy %,Erysiphe graminis hordei; [9],95%
"CC(CC(=O)OC1CCCCC1)NS(=O)(=O)c1ccccc1 (stereo not drawn) [compound 39, D,L N-benzenesulfonyl-3-aminobutyric acid cyclohexyl ester]",Control efficacy (%) 7d,Phytophthora infestans [1],75%
same,Control efficacy (%) 7d,[3],70%
"CCCCCCCOC(=O)CC(C)NS(=O)(=O)c1ccc(Cl)cc1 (stereo not drawn) [compound 40, D,L N-4-chlorobenzenesulfonyl-3-aminobutyric acid heptyl ester]",Control efficacy (%) 7d,[3],82%
"D,L-N-β-methyl benzoyl-3-aminobutyric acid n-octyl ester [Example 3]",Control Efficacy %,"Phytophthora infestans [4]; Potato, 14.8.96, 2000 ppm",88%
same,Control Efficacy %,"Phytophthora infestans [4]; Potato, 17.7.096, 500 ppm",70%
same,Control Efficacy %,"Phytophthora infestans [4]; Potato, 17.7.096, 2000 ppm",81%
same,Control Efficacy %,"Phytophthora infestans [4]; Potato, 26.7.96, 500 ppm",85%
same,Control Efficacy %,"Phytophthora infestans [4]; Potato, 26.7.96, 2000 ppm",92%
same,Control Efficacy %,"Phytophthora infestans [5]; Tomato, 12.7.96, 2000 ppm",70%
same,Control Efficacy %,"Phytophthora infestans [5]; Tomato, 14.8/96, 2000 ppm",93%
"CC(C)C[C@@H](N)C(=O)O [D-leucine, D-and DL leucine]",reduction of scab in apple,Venturia inaequalis,reduce scab
CC(N)CC(=O)O (racemic) [DL-β-aminobutyric acid],protection of tomato leaves,Phytophthora infestans [7],protected those leaves
"CCCCC(C)OC(=O)CC(C)NC(=O)c1ccccc1NC (stereo not drawn) [compound 52, D,L N-2-methylaminobenzoyl-3-aminobutyric acid 1-methylpentyl ester]",Control efficacy (%) 7d,Phytophthora infestans [1],75%
same,Control efficacy (%) 7d,[3],97%
N[C@H](CO)C(=O)O [D-serine],behaviour as chemotherapeutant against the fungus on cucumber,cladosporium cucumerinum,behaved as chemothrerpeutants
"CCCOC(=O)CC(C)NS(=O)(=O)c1ccc(Cl)cc1 (stereo not drawn) [compound 35, D,L N-4-chlorobenzenesulfonyl-3-aminobutyric acid propyl ester]",Control efficacy (%) 7d,Phytophthora infestans [1],81%
same,Control efficacy (%) 7d,[2],81%
same,Control efficacy (%) 7d,[3],77%
"CC(CC(=O)NCc1ccccc1)NS(=O)(=O)c1ccccc1 (racemic) [Example 1, D,L-N-benzenesulfonyl-3-amino N-benzyl butyramide]",Control Efficacy %,"Phytophthora infestans [4]; Potato, 14.8.96, 2000 ppm",72%
same,Control Efficacy %,"Phytophthora infestans [4]; Potato, 17.7.096, 500 ppm",57%
same,Control Efficacy %,"Phytophthora infestans [4]; Potato, 17.7.096, 2000 ppm",77%
same,Control Efficacy %,"Phytophthora infestans [4]; Potato, 26.7.96, 500 ppm",49%
same,Control Efficacy %,"Phytophthora infestans [4]; Potato, 26.7.96, 2000 ppm",79%
same,Control Efficacy %,"Phytophthora infestans [5]; Tomato, 12.7.96, 500 ppm",82%
same,Control Efficacy %,"Phytophthora infestans [5]; Tomato, 12.7.96, 2000 ppm",97%
same,Control Efficacy %,"Phytophthora infestans [5]; Tomato, 14.8/96, 2000 ppm",90%
same,Control Efficacy %,Erysiphe graminis hordei; [8],25%
same,Control Efficacy %,Erysiphe graminis hordei; [9],75%
"CCCCCCCCOC(=O)CC(C)NC(=O)c1ccc(Cl)c(Cl)c1 (racemic) [Example 5, D,L-N-3,4-dichlorobenzoyl-3-aminobutyric acid n-octyl ester]",Control Efficacy %,[6]; [10],76%
same,Control Efficacy %,[6]; [11],92%
same,Control Efficacy %,Erysiphe graminis hordei; [8],82%
same,Control Efficacy %,Erysiphe graminis hordei; [9],85%
